Tests used:
MCF-7 cells [1] = test: Cell proliferation experiments, MCF-7 cells (cell numbers after 8 days); format: cell-based, human; details: for antiproliferative effect on MCF-7 cells (dose effect): HPLC fractions or ceramide compounds alone
Experimental: MCF7-E3 human breast cancer estrogen-sensitive cells were provided by Dr. D. Desaulniers of Health Canada, Ottawa. Cells were routinely propagated as a monolayer culture in Dulbcco's Modified Eale Medium (DMEM) supplemented with 10% heat-inactivated fetal bovine serum (FBS), in 75-cm^2 plastic dish at 37° C. in a humidified atmosphere with 5% CO2, and passage 3-4 days a time. A normal human mammary epithelial cell line was provided by Dr. M. Stampfer of UC Livermore Labs. Cells were routinely propagated as a monolayer culture in Mammary Epithelial Growth Media (MEGM, Clonetics, San Diego) supplemented with 10% heat-inactivated fetal bovine serum (FBS), in 75-cm^2 plastic dish at 37° C. in a humidified atmosphere with 5% CO2, and passage every week. For the experiments, both cells were harvest from the dish using 0.25% trypsin-EDTA solution.
Four kefir products (K1-K4) collected at various stages of kefir production at Liberty Brand Products, Inc. (Montreal, Canada) were used in this study. The large-scale production of kefir involves a two-step fermentation process. The first step is to prepare the cultures by incubating milk with kefir grains (2-10%) (K1) and fermented for 24 hrs. The grains are then removed by filtration and the resulting mother culture (K2) is added to pasteurized milk (K3), which is further fermented for 12 hrs and this final product (K4) is packaged for the consumer market. A pasteurized milk sample (M1) and two yogurt products; mixture of yogurt bacteria, pasteurized milk and milk powder (Y1) and the final yogurt product after 12 hrs of fermentation (Y2) were included for comparison. The yeast and bacteria in the samples were removed by centrifugation and filtration. About 35 ml each of the seven samples was centrifuged (32,000×g, 60 min, 4° C.) and the supernatant was filtered through a 0.45 μm Millipore filter followed by a 0.2 μm Millipore filter (Millipore Corporation, Bedford, USA). Extracts from two separate batches of kefir and yogurt were used.
Cells previously harvested were seeded in 24-well plates; 10,000 cells for MCF-7 per well in DMEM supplemented with 10% FBS and 5,000 cells for HMEC per well in MEGM supplemented with 10% FBS. The cells were allowed to attach for 24 hours. […] Cells were incubated at 37° C. in a humidified atmosphere with 5% CO2 for 8 days and the cell numbers in each well were counted using a Coulter Counter (Coulter Counter Corporation, USA). […]
The cell numbers expressed as percentage of control from different treatments and dose were compared using two-way ANOVA. When the interaction between treatments and dose was also significant the difference between treatment groups was determined by Tukey's HSD multiple comparison test. […]

MCF-7 cells [2] = details: 1 μM; cited from earlier work

Compound | dosage showing antiproliferative effect on MCF-7 cells (MCF-7 cells [1]) | antiproliferative effect on MCF-7 cells (dose effect) (MCF-7 cells [1]) | levels of angiogenesis stimulators VEGF and cathepsin D (MCF-7 cells [2])
CC/C(=C(\c1ccccc1)c1ccc(OCCN(C)C)cc1)c1ccccc1 [Tamoxifen] | above 0.2 μM/L |  | 
CCCCCCCCCCCCC/C=C/[C@@H](O)[C@H](CO)NC(=O)CCCCC [C6 ceramide] |  | strong dose dependent antiproliferative effect | below 50 % of the control
ceramide I |  | strong dose dependent antiproliferative effect | 
ceramide 1-phosphate |  | did not | 

From patent US20050281904A1, “Kefir extract as an anti-cancer agent” (McGill University, priority 2000, published 2005)
